According to patent publication US10980769B2, “Tiglien-3-one derivatives” (QBIOTICS PTY LTD, priority 2005, dated 2021):

Tests used:
HT-29 colon tumour cells = experiment: Cell scattering of cultured cells; format: cell-based, human
Description: In addition, scattering of MCF-7 and HT-29 colon tumour cells was observed, typical of PKC activators. […] Additionally, given their similarity in structure, EBI-47, EBI-59 and EBI-61 are also considered to be protein kinase C activators.

human breast MCF-7 = experiment: Growth inhibition of cultured cells; format: cell-based; details: human breast CF-7
Method: (§1) Briefly, a range of tumour cells including mouse melanoma, human melanoma, mouse squamous cell carcinoma, human breast, human colon, human leukemia and human lung and normal human cells including normal human fibroblasts were seeded at 2-5,000 per microtitre well (96-well plate) in 10% FCS-RPMI 1640 culture medium, treated, and allowed to grow until the controls were nearly confluent (5-6 days). The wells were then washed twice with PBS, fix with ethanol for a minimum of 5 minutes and washed with water. SRB solution (50 μL of 0.4% in 1% acetic acid) was added and left at room temperature for a minimum of 15 minutes. The plate was washed rapidly with tap water and then twice with 1% acetic acid. After addition of 100 μL/well of 10 mM Tris base (unbuffered, pH>9), plates were left for a minimum of 5 minutes, then the absorbance was read at 564 nm on the ELISA reader, with a 3 second prior shaking. After subtraction of a blank (wells with no cells, absorbance typically about 0.04), growth inhibition was calculated as % of the untreated control and plotted against dose.
(§2) Briefly, a suspension of a range of tumour cells including mouse melanoma, human melanoma, mouse squamous cell carcinoma, human breast, human colon, human leukemia and human lung and normal human cells including normal human fibroblasts were seeded into round-bottom microtitre plates in 10% FCS-RPMI 1640 culture medium, treated and allowed to grow for 5-6 days. To measure cell growth, 20 μL of a combined MTS/PMS solution (Promega Cell ProliferationAssay Kit Cat #G5430) was added to each well of the 96 well assay plate. After 1-4 hours the plates were placed in the ELISA plate reader and the absorbance read at 490 nm. After subtraction of a blank (wells with no cells, absorbance typically about 0.4), growth inhibition was calculated as % of the untreated control and plotted against dose.
(§3) For growth inhibition assays, cells (2000-5000/well) were seeded in 96-well plates in duplicate, treated with drug next day and allowed to grow for a further 5-6 days. The plates were then washed in PBS (phosphate buffered saline, pH 7.2), fixed with ethanol and stained by addition of 50 μL 0.4% SRB (sulforhodamine) in 1% acetic acid. The plate was left at room temperature for a minimum of 15 minutes, then washed rapidly with tap water and then twice with 1% acetic acid. After addition of 100 μL/well of 10 mM Tris base (unbuffered, pH>9), plates were left for a minimum of 5 minutes, then the absorbance was read at 564 nm on the ELISA reader, with a 3 second prior shaking. After subtraction of a blank (wells with no cells, typically about 0.04), growth inhibition was calculated as % of the untreated control and plotted against dose.

human colon Colo205 = experiment: Growth inhibition of cultured cells; format: cell-based
Method: as §1, §2, §3

human leukemia U937 = experiment: Growth inhibition of cultured cells; format: cell-based
Method: as §1, §2, §3

HOP62 lung = experiment: Growth inhibition of cultured cells; format: cell-based; details: human lung H0P62
Method: as §1, §2, §3

[1] = system: normal human fibroblasts (NFF); experiment: Growth inhibition of cultured cells; format: cell-based
Method: as §1, §2, §3

human lung A549 = experiment: Growth inhibition of cultured cells; format: cell-based
Method: as §1, §2, §3

human melanoma MM127 = experiment: Growth inhibition of cultured cells; format: cell-based
Method: as §1, §2, §3

D04 melanoma = experiment: Growth inhibition of cultured cells; format: cell-based; details: human melanoma DO4
Method: as §1, §2, §3

human melanoma MM96L = experiment: Growth inhibition of cultured cells; format: cell-based
Method: as §1, §2, §3

human leukemia K562 = experiment: Growth inhibition of cultured cells; format: cell-based
Method: as §1, §2, §3

LK-2 mouse SCC = experiment: Intralesional injection of LK-2 SCC tumours in mice; format: in vivo
Method: Squamous Cell Carcinoma (SCC) tumours were established by the same method as for topical treatment but were allowed to grow for 15 days before drug treatment. 7 μg EBI-46 in 20 μL, saline was injected into each of 3 sides of the tumour. Tumour size was measured with calipers at appropriate intervals.
Animal experiments were conducted under Queensland Institute of Medical Research (QIMR) Animal Ethics Committee approvals. The B16 mouse melanoma model was obtained by injecting 0.5 million B16 mouse melanoma cells subcutaneously into each of the 2 flanks of a male C57BL/6 mouse. The human tumour xenografts were obtained by injecting 2 million of the respective tumour cell line into each of 4 sites on the flanks of male nude mice (BALB/c background). EBI-46 was applied: (a) topically by dilution of a concentrated solution in acetone into an isopropanol gel, once a day for 3 days; (b) intralesionally by injection into the tumour of drug dissolved in 25% propylene glycol-0.1 M saline, (c) systemically by injection intraperitoneally in 25% propylene glycol in 0.1 M saline. Tumour size was measured with electronic callipers in mm and converted to volume (cubic mm) using the formula: Tumour volume=length×breadth×breadth/2. Results
A pilot study was conducted on 6 mm×6 mm LK-2 tumours established in nude mice. Approximately 50 μL of a solution of EB548 fractions (approximately 20 μg EBI-46 in the EB548-35 fraction) in saline containing 20% acetone were injected in 3 sites around the periphery of each lesion. This was only done once.
With PEG 400 delivery, 10 μg EBI-46 in 25 μL solution was injected (29 gauge) with a 0.5 mL insulin needle into a 7 mm×7 mm tumour, highly visible on the left flank of a nude mouse.

PKC = PKC activation in cultured tumour cells (scattering and growth inhibition of MCF7); format: cell-based, human; details: defined by scattering and growth inhibition of MCF7 breast cancer cells

## C/C=C(\C)C(=O)OC1C(C)C2(O)C(C3OC3(CO)C(O)C3(O)C(=O)C(C)=CC32)C2C(C)(C)C12OC(=O)C(C)CC (stereo not shown) [EBI-46, 12-tigloyl-13-(2-methylbutanoyl)-6,7-epoxy-4,5,9,12,13,20-hexahydroxy-1-tiglian-3-one]
HT-29 colon tumour cells
  scattering of HT-29 colon tumour cells: scattering
Human breast MCF-7
  Concentration of EBI-46 at which growth inhibition was observed: <100 ng/mL
Human colon Colo205
  Concentration of EBI-46 at which growth inhibition was observed: <100 ng/mL
Human leukemia U937
  Concentration of EBI-46 at which growth inhibition was observed: <100 ng/mL
HOP62 lung
  Concentration of EBI-46 at which growth inhibition was observed: <100 ng/mL
[1]
  Concentration of EBI-46 at which growth inhibition was observed: None observed at 10 μg/mL
Human lung A549
  Concentration of EBI-46 at which growth inhibition was observed: <100 ng/mL
Human melanoma MM127
  Concentration of EBI-46 at which growth inhibition was observed: <100 ng/mL
D04 melanoma
  Concentration of EBI-46 at which growth inhibition was observed: <100 ng/mL
Human melanoma MM96L
  Concentration of EBI-46 at which growth inhibition was observed: =/<2 μg/mL
Human leukemia K562
  Concentration of EBI-46 at which growth inhibition was observed: <100 ng/mL
LK-2 mouse SCC; 10 μg in 25 μL PEG 400 containing 10% ethanol, 7 mm × 7 mm tumour
  tumour at 16 hours: tumour lump had largely gone
LK-2 mouse SCC; 10 μg in PEG 400 containing 10% ethanol, single injection
  time mouse remained tumour-free: over 9 months
LK-2 mouse SCC; intralesional 21 ug
  systemic toxicity or lung metastases on post mortem: There were no signs of
LK-2 mouse SCC; intralesional 21 ug (3 × 7 ug), 15-day established tumours
  tumour size: reduction of tumour size.
PKC
  PKC activity: yes
